Literature values as cited in patent US20110300232A1, “EFFECTS OF NITRIC OXIDE (NO) AND iNOS ON EXPRESSION AND SIGNAL TRANSDUCTION IN CANCER AND ITS USE IN DRUG DISCOVERY AND CANCER THERAPY DESIGN” (priority 2010, published 2011).

Assays:
[1] = tested on: HIF-α; conditions: for effect on HIF-α expression: NO donor exposure, FIG. 4A and 4B, MCF-7
[2] = not given; remark: listed apart in the source
[3] = tested on: p53; conditions: high levels of NO

| Compound | effect on HIF-α expression [1] | duration of NO level provided in media | half-life in the body [2] [s] | NO level that stimulates p53 activation, causing apoptosis [3] | NO concentration required for HIF-α stabilization ([1]; low concentration of NO) |
| --- | --- | --- | --- | --- | --- |
| CCN(CC)/[N+]([O-])=N/[O-].[Na+] [DEA/NO] | did not regulate HIF-α expression | only an hour | – | – | – |
| NCCCNCCCCN(CCCN)/[N+]([O-])=N/O [Sper/NO] | stabilizing the HIF-α expression | several hours | – | – | – |
| NCCN(CCN)/[N+]([O-])=N/O [DETA/NO] | stabilizing the HIF-α expression | several hours | – | – | – |
| [N]=O [NO, Nitric oxide] | – | – | 1 to 5 | more than 500 nm | 100-200 nm |
